The text below walks through data of ChEMBL document CHEMBL3879915, “Methods of inhibiting PRMT5” (2014).

Structures are written as SMILES.

One test has as its target PRMT5/MEP50 complex (Homo sapiens, UniProt O14744). The test is described as follows: Inhibition of recombinant human fetal brain FLAG-tagged PRMT5/full length human testis 6His-tagged MEP50 expressed in baculovirus infected insect Sf9 cells using human histone H4 (1 to 15 residues) as substrate preincubated for 30 mins followed by [3H]-SAM addition.
The nature of test [1]: Antiproliferative activity against human Z138 cells assessed as inhibition of cell viability after 5 days by Cell-Titer Glo assay. The format is functional, cell-based. The following applies: Z-138, 120 h.
Test [2] concerns the target Protein arginine N-methyltransferase 5 (Homo sapiens, UniProt O14744). Briefly: Inhibition of PRMT5 in human Z138 cells assessed as decrease in di-methyl arginine levels after 96 hrs by Western blot method. The format is cell-based.

Chain of Protein arginine N-methyltransferase 5 (O14744 whole entry): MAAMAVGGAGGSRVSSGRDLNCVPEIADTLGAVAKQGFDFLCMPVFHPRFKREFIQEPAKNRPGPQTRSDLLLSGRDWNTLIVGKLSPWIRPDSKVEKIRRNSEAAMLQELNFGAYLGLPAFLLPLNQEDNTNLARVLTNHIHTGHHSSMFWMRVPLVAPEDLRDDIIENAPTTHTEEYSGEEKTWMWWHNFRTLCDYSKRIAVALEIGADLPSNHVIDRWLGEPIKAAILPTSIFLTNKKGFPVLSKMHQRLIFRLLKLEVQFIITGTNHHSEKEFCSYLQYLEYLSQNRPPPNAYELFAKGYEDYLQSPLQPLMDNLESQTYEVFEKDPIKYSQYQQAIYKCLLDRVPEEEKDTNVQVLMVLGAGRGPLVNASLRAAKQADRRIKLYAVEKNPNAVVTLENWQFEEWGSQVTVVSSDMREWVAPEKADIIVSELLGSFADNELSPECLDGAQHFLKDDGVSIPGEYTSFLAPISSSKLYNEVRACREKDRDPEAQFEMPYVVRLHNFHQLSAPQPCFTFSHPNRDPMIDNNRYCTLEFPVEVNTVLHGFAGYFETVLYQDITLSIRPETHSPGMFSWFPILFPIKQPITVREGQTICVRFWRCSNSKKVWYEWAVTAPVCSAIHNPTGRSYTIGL
Chain of PRMT5/MEP50 complex (O14744 whole entry, the tested form may be a part): as the sequence (O14744 whole entry) above
Chain of PRMT5/MEP50 complex (Q9BQA1 whole entry, further chain, the tested form may be a part): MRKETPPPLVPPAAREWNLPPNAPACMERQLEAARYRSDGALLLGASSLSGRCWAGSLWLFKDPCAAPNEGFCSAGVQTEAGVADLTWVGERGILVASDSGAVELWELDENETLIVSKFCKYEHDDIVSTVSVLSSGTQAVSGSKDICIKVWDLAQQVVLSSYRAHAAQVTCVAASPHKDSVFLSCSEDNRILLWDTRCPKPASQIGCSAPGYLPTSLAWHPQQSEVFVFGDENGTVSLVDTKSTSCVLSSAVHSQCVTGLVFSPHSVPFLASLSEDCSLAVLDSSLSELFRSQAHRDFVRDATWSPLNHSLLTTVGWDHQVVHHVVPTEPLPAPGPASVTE

For the compound `OC(COCc1ccccc1)CN1CCc2ccccc2C1` (centres undefined), the IC50 on PRMT5/MEP50 complex is 10000 to 40000 nM. The EC50 in test [1] is greater than 40000 nM.

For the compound `OC(COc1ccc2c(c1)OCO2)CN1CCc2ccccc2C1` (centres undefined), the IC50 at PRMT5/MEP50 complex is 1000 to 10000 nM. Further, in test [1], the EC50 was greater than 20000 nM.

For `OC(COCC1COc2ccccc2O1)CN1CCc2ccccc2C1` (centres undefined), the IC50 at PRMT5/MEP50 complex lay within 101 to 40000 nM. Also, the EC50 in test [1] is greater than 40000 nM.

`CCN(c1cccc(C(=O)NCC(O)CN2CCc3ccccc3C2)c1)C1CCOCC1` (centres undefined): the IC50 at PRMT5/MEP50 complex was in the range of 101 to 1000 nM. Moreover, the EC50 in test [2] lay in the range of 101 to 1000 nM.

For `CN1CCCCC1COCC(O)CN1CCc2ccccc2C1` (centres undefined), the IC50 on PRMT5/MEP50 complex was greater than 40000 nM. Besides, in test [1], the EC50 was greater than 40000 nM.

Turning to `CCC1c2ccccc2CCN1CC(O)COc1cccc(-c2ccc3ncn(C)c3c2)c1` (centres undefined), the IC50 on PRMT5/MEP50 complex lay in the range of 101 to 1000 nM. In addition, the EC50 in test [1] is greater than 20000 nM.

Regarding `O=C(COc1ccccc1)NCC(O)CN1CCc2ccccc2C1` (centres undefined), on PRMT5/MEP50 complex, the IC50 was in the range of 101 to 1000 nM. For the same compound, in test [2], the EC50 lay in the range of 101 to 1000 nM.

Take `N#Cc1ccc(OCC(=O)NCC(O)CN2CCc3ccccc3C2)cc1` (centres undefined): at PRMT5/MEP50 complex, the IC50 fell in the range of 101 to 1000 nM. Also, the EC50 was in the range of 101 to 1000 nM in test [2] and 10000 to 50000 nM in test [1].

In the case of `OC(COCC1CCCCC1)CN1CCc2ccccc2C1` (centres undefined), the IC50 at PRMT5/MEP50 complex lay within 1000 to 10000 nM. For the same compound, in test [1], the EC50 is greater than 40000 nM.

`Cn1cnc2ccc(OCC(=O)NCC(O)CN3CCc4ccccc4C3)cc21` (centres undefined): the EC50 in test [2] fell in the range of 101 to 1000 nM; in test [1], 10000 to 50000 nM.

For the compound `OC(COc1cccc(CNC2CCCC2)c1)CN1Cc2ccccc2C1` (centres undefined), on PRMT5/MEP50 complex, the IC50 lay within 1000 to 10000 nM. Moreover, the EC50 in test [1] lay within 10000 to 50000 nM.

Consider `CN1CCC(OCC(O)CN2CCc3ccccc3C2)CC1` (centres undefined), for which the concentration for half-maximal inhibition (IC50) on PRMT5/MEP50 complex was greater than 40000 nM. In addition, the EC50 in test [1] is greater than 40000 nM.

On to `O=C(COc1ccccc1S(=O)(=O)N1CCOCC1)NCC(O)CN1CCc2ccccc2C1` (centres undefined), for which, at PRMT5/MEP50 complex, the IC50 was less than 100 nM. Also, in test [2], the EC50 was 101 to 1000 nM.

For `O=C(COc1ccccc1N1CCOCC1)NC[C@@H](O)CN1CCc2ccccc2C1`, the IC50 on PRMT5/MEP50 complex is 101 to 1000 nM. In test [2], the EC50 fell in the range of 101 to 1000 nM.

Take `CC(C)(C)OC(=O)N1CCC(OCC(O)CN2CCc3ccccc3C2)CC1` (centres undefined): the IC50 on PRMT5/MEP50 complex lay within 1000 to 10000 nM. The EC50 in test [1] is greater than 40000 nM.

Consider `COc1cccc2c1CN(CC(O)COc1cccc(CNC3CCCC3)c1)CC2` (centres undefined), for which the IC50 on PRMT5/MEP50 complex lay within 10000 to 40000 nM. Further, the EC50 in test [1] was in the range of 10000 to 40000 nM.

`O=C(NCC(O)CN1Cc2ccccc2C1)c1cccc(NC2CCOCC2)c1` (centres undefined): on PRMT5/MEP50 complex, the IC50 lay in the range of 101 to 1000 nM. For the same compound, the EC50 in test [2] fell in the range of 101 to 1000 nM.

As to `N#CCc1cccc(-c2cccc(OCC(O)CN3CCc4ccccc4C3)c2)c1` (centres undefined), at PRMT5/MEP50 complex, the IC50 lay within 101 to 1000 nM. Besides, the EC50 in test [2] fell in the range of 1000 to 10000 nM.

In the case of `CC(OCC(O)CN1CCc2ccccc2C1)c1cccnc1` (centres undefined), the IC50 on PRMT5/MEP50 complex was 10000 to 40000 nM. The EC50 in test [1] was greater than 40000 nM.

As for `N#Cc1ccccc1OCC(=O)NCC(O)CN1CCc2ccccc2C1` (centres undefined), the IC50 on PRMT5/MEP50 complex was in the range of 101 to 1000 nM. Also, the results for the concentration for a half-maximal effect (EC50) in test [2] and in test [1] were 101 to 1000 nM and 10000 to 50000 nM, respectively.

Take `CN1CCN(c2ccccc2OCC(=O)NC[C@@H](O)CN2CCc3ccccc3C2)CC1`: the IC50 on PRMT5/MEP50 complex fell in the range of 1000 to 10000 nM. For the same compound, the EC50 in test [2] was 1000 to 10000 nM.

On to `O=C(COc1cccc2cccnc12)NCC(O)CN1CCc2ccccc2C1` (centres undefined), for which, at PRMT5/MEP50 complex, the IC50 is less than 100 nM. In addition, the EC50 is less than 100 nM in test [2] and 101 to 1000 nM in test [1].

In the case of `COc1cc(Cl)cc(-c2cccc(OCC(O)CN3CCc4ccccc4C3)c2)c1` (centres undefined), at PRMT5/MEP50 complex, the IC50 fell in the range of 101 to 1000 nM. The EC50 in test [2] is greater than 20000 nM.

Take `OC(COC1Cc2ccccc2C1)CN1CCc2ccccc2C1` (centres undefined): the IC50 at PRMT5/MEP50 complex fell in the range of 1000 to 10000 nM. In test [1], the half-maximal effective concentration (EC50) was greater than 40000 nM.

On to `CC(C)(C)OC(=O)Nc1cccc(C(=O)NCC(O)CN2Cc3ccccc3C2)c1` (centres undefined), for which, at PRMT5/MEP50 complex, the IC50 was 101 to 1000 nM. Besides, the EC50 in test [2] is 1000 to 10000 nM.

Turning to `Cc1ccccc1OCC(=O)NCC(O)CN1CCc2ccccc2C1` (centres undefined), at PRMT5/MEP50 complex, the IC50 lay within 101 to 1000 nM. The EC50 in test [2] fell in the range of 101 to 1000 nM; in test [1], 1000 to 10000 nM.

`O=C(NC[C@@H](O)CN1CCc2ccccc2C1)Oc1ccccc1`: the IC50 at PRMT5/MEP50 complex was less than 100 nM. The EC50 in test [2] is 1000 to 10000 nM.

Regarding `O=C(COc1cccc(F)c1)NCC(O)CN1CCc2ccccc2C1` (centres undefined), the IC50 on PRMT5/MEP50 complex lay within 101 to 1000 nM. Also, the results for the EC50 in test [2] and in test [1] were 101 to 1000 nM and 10000 to 50000 nM, respectively.

For the compound `CS(=O)(=O)c1ccccc1OCC(=O)NCC(O)CN1Cc2ccccc2C1` (centres undefined), on PRMT5/MEP50 complex, the IC50 was in the range of 101 to 1000 nM. Also, in test [2], the EC50 is 101 to 1000 nM.

Take `CC(C)(C)OC(=O)N1CCCC(OCC(O)CN2CCc3ccccc3C2)C1` (centres undefined): at PRMT5/MEP50 complex, the IC50 lay in the range of 1000 to 10000 nM. In test [1], the EC50 is greater than 40000 nM.

With `COc1cccc(COCC(O)CN2CCc3ccccc3C2)c1` (centres undefined), the IC50 on PRMT5/MEP50 complex lay within 1000 to 10000 nM. The EC50 in test [1] was greater than 40000 nM.

On to `Cn1cnc2ccc(NCC(=O)NCC(O)CN3CCc4ccccc4C3)cc21` (centres undefined), for which the IC50 on PRMT5/MEP50 complex lay within 101 to 1000 nM. Besides, the EC50 in test [2] fell in the range of 1000 to 10000 nM.

For `CN(C)CCOc1ccccc1OCC(=O)NC[C@@H](O)CN1CCc2ccccc2C1`, the IC50 at PRMT5/MEP50 complex is 101 to 1000 nM. Also, the EC50 in test [2] is 1000 to 10000 nM.

Consider `O=c1cc(-c2ccccc2)ccn1C[C@@H](O)CN1CCc2ccccc2C1`, for which the EC50 in test [2] is greater than 50000 nM.

On to `OC(COCC1CC1)CN1CCc2ccccc2C1` (centres undefined), for which the 50% inhibitory concentration (IC50) at PRMT5/MEP50 complex lay in the range of 1000 to 10000 nM. Further, in test [1], the EC50 is greater than 40000 nM.
